# Source: patent US20260124191A1, “HISTONE DEACETYLASE INHIBITOR AND USES THEREOF” (NANJING HONGSHUN PHARMACEUTICAL TECHNOLOGY CO., LTD, priority 2023, published 2026)
# Legend:
# HDAC = HDAC inhibitory activity assay (FRET); format: biochemical; conditions: for IC50: HDAC, FRET, read-out: Half-maximal inhibitory concentration (IC50 ± SD); for Inhibition rate: test concentration 100 nM, relative to DMSO control
# Method: The HDAC inhibitory activity of the synthesized compounds was determined by fluorescence resonance energy transfer (FRET), and then compared with that of the positive control to screen out compounds with better activity. HDAC was obtained by purification or purchased directly.
# The method was as follows.
# An enzyme was added to reaction wells, a reaction buffer was added to control wells, a sample dissolved in DMSO was added to the reaction wells, and the wells were incubated using a contactless nanoflow sonic pipetting system (Ech-550; nanoflow). A fluorescent substrate was added to each reaction well and then rotated and shaken. The wells were incubated for 1-2 h at 30° C. under a sealed condition. A TMP26-containing chromogenic agent was added to terminate the reaction and produce fluorescence. The fluorescence intensity was detected using En Vision multi-label microplate detector (Perkin Elmer) (excitation light: 490 nm, emitted light: 520 nm). After the stabilization of color development, the endpoint value was read. The percentage (relative to the DMSO control group) inhibition rate was calculated using the software GraphPad Prism 4.
# HT29 = assay: In vitro anti-tumor activity, MTT method; format: cell-based; conditions: Homo sapiens, HT-29, 96-hour treatment, read-out: Antiproliferative Activity (IC50 ± SD, μM) HT29
# [1] = test system: human non-small cell lung cancer cell line A549; assay: In vitro anti-tumor activity, MTT method; format: cell-based; conditions: Homo sapiens, A549, 96 h, 96-hour treatment
# Method: (§1) The inhibitory effects of the compounds against human non-small cell lung cancer cell lines A549, NCI-H1650, human small cell lung cancer cell lines H446, human prostate cancer cells DU145, PC-3, LNCAP, human colon cancer cells lines HCT116, human breast cancer cells MDA-MB-231, and MCF7 tumor cell lines were determined using the MTT method.
# (§2) The method was as follows. The cells in the exponential growth phase were collected to count living cells. The concentration of the cell suspension was adjusted using the corresponding medium of each group of cells. The cell suspension was added to the 96-well culture plate at 100 μL per cell, and the plate was placed in a 5% CO2 incubator at 37° C. and incubated for 24 h. Each test compound was dissolved in DMSO to prepare a stock solution with a corresponding concentration. Then, each stock solution was diluted 500-fold with the medium to prepare 4 replicate wells. 100 μL of the corresponding 500-fold solution was added to each well per cell line, with the final DMSO concentration of 0.1%. […] The half-maximal (relative to the DMSO control group) inhibition rate was calculated using the software GraphPad Prism 4.
# [2] = test system: human prostate cancer cells LNCAP; assay: In vitro anti-tumor activity, MTT method; format: cell-based; conditions: 96-hour treatment, read-out: Antiproliferative Activity (IC50 ± SD, μM) LNCAP
# Method: as §1, §2
# [3] = test system: human prostate cancer cells DU145; assay: In vitro anti-tumor activity, MTT method; format: cell-based; conditions: Homo sapiens, DU-145, 96 h, 96-hour treatment
# Method: as §1, §2
# [4] = test system: human non-small cell lung cancer cell line NCI-H1650; assay: In vitro anti-tumor activity, MTT method; format: cell-based; conditions: 96-hour treatment, read-out: Antiproliferative Activity (IC50 ± SD, μM) H1650
# Method: as §1, §2
# [5] = test system: human small cell lung cancer cell line H446; assay: In vitro anti-tumor activity, MTT method; format: cell-based; conditions: NCI-H446, 96-hour treatment, read-out: Antiproliferative Activity (IC50 ± SD, μM) H446
# Method: as §1, §2
# [6] = test system: human breast cancer cells MCF7; assay: In vitro anti-tumor activity, MTT method; format: cell-based; conditions: Homo sapiens, MCF7, 96 h, MCF-7, MTT, 96-hour treatment
# Method: as §1, §2
# [7] = test system: human breast cancer cells MDA-MB-231; assay: In vitro anti-tumor activity, MTT method; format: cell-based; conditions: MDA-MB-231, MTT, 96-hour treatment, read-out: Antiproliferative Activity (IC50 ± SD, μM) MDA-MB-231
# Method: as §1, §2
# [8] = test system: human prostate cancer cells PC-3; assay: In vitro anti-tumor activity, MTT method; format: cell-based; conditions: Homo sapiens, 96 h, PC-3, MTT, 96-hour treatment
# Method: as §1, §2
# [9] = test system: human colon cancer cell line HCT116; assay: In vitro anti-tumor activity, MTT method; format: cell-based; conditions: HCT-116, 96-hour treatment, read-out: Antiproliferative Activity (IC50 ± SD, μM) HCT116
# Method: as §1, §2
SMILES,IC50 (HDAC) [nM],IC50 (HT29) [µM],IC50 [1] [nM],IC50 [2] [µM],IC50 [3] [nM],IC50 [4] [µM],IC50 [5] [µM],IC50 [6] [nM],IC50 [7] [µM],IC50 [8] [nM],IC50 [9] [µM],Inhibition rate (HDAC)
"CC(C)c1ccc(/C=C2\CC(=O)N(CCCCCCC(=O)NO)C2=O)cc1 [Example I-15, (E)-7-(3-(4-isopropylbenzal)-2,5-diketopyrrolidinyl)-N-hydroxyheptamide]",,,3680 ± 500,,1350 ± 270,,,1660 ± 140,,1820 ± 160,,81.4% ± 0.5%
"O=C(CCCCCN1C(=O)C/C(=C\c2ccccc2)C1=O)N[C@H]1CCCC[C@@H]1O [Example I-12, 6-(3-((E)-benzal)-2,5-diketopyrrolidinyl)-N-((1S,2S)-2-hydroxycyclohexyl)hexanamide]",,,> 20000,,> 20000,,,> 20000,,> 20000,,0%
"COc1ccc(Br)cc1/C=C1\CC(=O)N(CCCCCCC(=O)NO)C1=O [Example I-39, (E)-7-(3-(5-bromo-2-methoxybenzal)-2,5-diketopyrrolidinyl)-N-hydroxyheptamide]",,,2210 ± 270,,460 ± 40,,,680 ± 90,,1130 ± 70,,88.1% ± 1.1%
"COc1cc(/C=C2\CC(=O)N(CCCCCCC(=O)NO)C2=O)cc(OC)c1OC [Example I-35, (E)-7-(3-(3,4,5-trimethoxybenzal)-2,5-diketopyrrolidinyl)-N-hydroxyheptamide]",,,3630 ± 650,,1030 ± 140,,,1270 ± 130,,1710 ± 170,,82.5% ± 3.5%
"O=C(CCCCCCN1C(=O)C/C(=C\c2ccc(Cl)c(Cl)c2)C1=O)NO [Example I-30, (E)-7-(3-(3,4-dichlorobenzal)-2,5-diketopyrrolidinyl)-N-hydroxyheptamide]",,,2340 ± 100,,440 ± 80,,,900 ± 20,,1690 ± 80,,82.1% ± 0.1%
"O=C(CCCCCCN1C(=O)C/C(=C\c2ccc(C(F)(F)F)cc2)C1=O)NO [Example I-17, (E)-7-(3-(4-trifluoromethylbenzal)-2,5-diketopyrrolidinyl)-N-hydroxyheptamide]",,,3370 ± 430,,1220 ± 180,,,1680 ± 90,,1830 ± 50,,76.2% ± 0.7%
"O=C(NO)c1ccc(CN2C(=O)C/C(=C\c3ccccc3)C2=O)cc1 [Example I-41, (E)-4-((3-benzal-2,5-diketopyrrolidinyl)methyl)-N-hydroxybenzamide]",,,3090 ± 410,,2540 ± 410,,,6970 ± 830,,7820 ± 900,,77.1% ± 1.8%

# Further lines, with some results ahead:
IC50 (HDAC) [nM],IC50 (HT29) [µM],IC50 [1] [nM],IC50 [2] [µM],IC50 [3] [nM],IC50 [4] [µM],IC50 [5] [µM],IC50 [6] [nM],IC50 [7] [µM],IC50 [8] [nM],IC50 [9] [µM],SMILES,Inhibition rate (HDAC)
12.6 ± 0.15,1.05 ± 0.1,1390 ± 60,0.63 ± 0.12,160 ± 40,3.56 ± 0.1,0.65 ± 0.05,350 ± 20,0.31 ± 0.05,820 ± 90,0.47 ± 0.01,"COc1ccccc1/C=C1\CC(=O)N(CCCCCCC(=O)NO)C1=O [Example I-31, (E)-7-(3-(2-methoxybenzal)-2,5-diketopyrrolidinyl)-N-hydroxyheptamide]",
12.9 ± 0.1,1.76 ± 0.25,1320 ± 170,1.63 ± 0.24,500 ± 70,6.12 ± 0.88,0.57 ± 0.03,1430 ± 60,0.67 ± 0.1,820 ± 70,0.75 ± 0.08,O=C(CCCCCCN1C(=O)C/C(=C\c2ccccc2)C1=O)NO [Example I-4],
,1.3 ± 0.1,1120 ± 200,1.95 ± 0.21,380 ± 40,7.3 ± 0.56,0.78 ± 0.04,1050 ± 240,2.05 ± 0.2,1700 ± 80,0.81 ± 0.06,"O=C(CCCCCCN1C(=O)C/C(=C\c2cccc(Cl)c2)C1=O)NO [Example I-25, (E)-7-(3-(3-chlorobenzal)-2,5-diketopyrrolidinyl)-N-hydroxyheptamide]",91.2% ± 0.7%
18.5 ± 0.19,,1240 ± 210,,400 ± 40,,,880 ± 90,,920 ± 30,,"COc1cccc(/C=C2\CC(=O)N(CCCCCCC(=O)NO)C2=O)c1 [Example I-32, (E)-7-(3-(3-methoxybenzal)-2,5-diketopyrrolidinyl)-N-hydroxyheptamide]",
19.3 ± 0.11,1.22 ± 0.1,1330 ± 230,1.51 ± 0.22,480 ± 60,6.6 ± 0.57,0.77 ± 0.1,580 ± 30,0.99 ± 0.11,1440 ± 100,0.86 ± 0.08,"O=C(CCCCCCN1C(=O)C/C(=C\c2ccccc2Cl)C1=O)NO [Example I-24, (E)-7-(3-(2-chlorobenzal)-2,5-diketopyrrolidinyl)-N-hydroxyheptamide]",
,,2200 ± 260,,570 ± 40,,,690 ± 90,,890 ± 120,,"O=C(CCCCCCN1C(=O)C/C(=C\c2ccc(Cl)cc2)C1=O)NO [Example I-26, (E)-7-(3-(4-chlorobenzal)-2,5-diketopyrrolidinyl)-N-hydroxyheptamide]",86.6% ± 0.4%
,1.69 ± 0.1,1800 ± 140,1.48 ± 0.2,340 ± 30,4.42 ± 0.72,0.7 ± 0.1,980 ± 20,0.98 ± 0.11,1290 ± 140,0.91 ± 0.11,"O=C(CCCCCCN1C(=O)C/C(=C\c2ccc3ccccc3c2)C1=O)NO [Example I-22, (E)-7-(3-(2-methylenenaphthyl)-2,5-diketopyrrolidinyl)-N-hydroxyheptamide]",89.4% ± 0.9%
,,1230 ± 170,,450 ± 120,,,820 ± 90,,880 ± 100,,"COc1ccc(/C=C2\CC(=O)N(CCCCCCC(=O)NO)C2=O)cc1OC [Example I-34, (E)-7-(3-(3,4-dimethoxybenzal)-2,5-diketopyrrolidinyl)-N-hydroxyheptamide]",85.3% ± 7.2%
